# Test results reported in patent publication US9304136B2, “Means and methods for assessing increased peroxisomal proliferation” (BASF SE, priority 2008, dated 2016).
# Assays:
# male rats = experiment: Plasma metabolite profiling after 28-day oral dosing, male rats (markers for peroxisomal proliferators); type: in vivo, rat; details: once daily gavage; for 16-Methylheptadecanoic acid, change in plasma relative to control / 17-Methyloctadecanoic acid, change in plasma relative to control / Coenzyme Q10, change in plasma relative to control / Proline, change in plasma relative to control / Threonine, change in plasma relative to control / Tyrosine, change in plasma relative to control / trans-4-Hydroxyproline, change in plasma relative to control: marker direction down; for Eicosatrienoic acid (C20:3), change in plasma relative to control: marker direction up
# Description: (§1) A group of each 5 male and female rats was dosed once daily with the indicated compounds (see tables below) at 10 and 100 mg/kg body weight per gavage over 28 days. Additional groups of each 5 male and female animals served as controls. Before starting the treatment period, animals, which were 62-64 days old when supplied, were acclimatized to the housing and environmental conditions for 7 days. All animals of the animal population were kept under the same constant temperature (20-24±3° C.) and the same constant humidity (30-70%). Each animal of the animal population was kept in a separate cage. The animals of the animal population are fed ad libitum. The food to be used was be essentially free of chemical or microbial contaminants. Drinking water was also offered ad libitum. Accordingly, the water was be free of chemical and microbial contaminants as laid down in the European Drinking Water Directive 98/83/EG. The illumination period was 12 hours light followed by 12 hours darkness (12 hours light, from 6:00 to 18:00, and 12 hours darkness, from 18:00 to 6:00).
# (§2) In the morning of day 7, 14, and 28, blood was taken from the retroorbital venous plexus from fasted anaesthetized animals. From each animal, 1 ml of blood was collected with EDTA as anticoagulant. The samples were be centrifuged for generation of plasma. All plasma samples were covered with a N2 atmosphere and then stored at −80° C. until analysis.
# (§3) For mass spectrometry-based metabolite profiling analyses plasma samples were extracted and a polar and a non-polar fraction was obtained. For GC-MS analysis, the non-polar fraction was […] with methanol under acidic conditions to yield the fatty acid methyl esters. Both fractions were further derivatised with O-methyl-hydroxyamine hydrochloride and pyridine to convert Oxo-groups to O-metyloximes and subsequently with a silyating agent […]. In LC-MS analysis, both fractions were reconstituted in appropriate solvent mixtures. HPLC was performed by gradient elution on reversed phase separation columns. For mass spectrometric detection metanomics proprietary technology was applied which allows target and high sensitivity MRM (Multiple Reaction Monitoring) profiling in parallel to a full screen analysis.
# (§4) Following comprehensive analytical validation steps, the data for each analyte were normalized against data from pool samples. These samples were run in parallel through the whole process to account for process variability. The significance of treatment group values specific for sex, dose group and metabolite was determined by comparing means of the treated groups to the means of the respective untreated control groups using Student's t-test. Normalized treatment group values and their significance were fed into a database for further statistics and data mining processes.
# (§5) The changes of the group of plasma metabolites being indicative for increased peroxisomal proliferation after treatment of the rats are shown in the following tables: […]
# female rats = experiment: Plasma metabolite profiling after 28-day oral dosing, female rats (markers for peroxisomal proliferators); type: in vivo, rat; details: once daily gavage; for 16-Methylheptadecanoic acid, change in plasma relative to control / 17-Methyloctadecanoic acid, change in plasma relative to control / Cytosine, change in plasma relative to control / Phosphatidylcholine (C18:0/C22:6), change in plasma relative to control: marker direction down; for Coenzyme Q9, change in plasma relative to control / Gamma-Linolenic acid (C18:cis[6,9,12]3), change in plasma relative to control / Glycerol, lipid fraction, change in plasma relative to control / Palmitic acid (C16:0), change in plasma relative to control / Pantothenic acid, change in plasma relative to control / Threonic acid, change in plasma relative to control: marker direction up
# Description: as §1, §2, §3, §4, §5
structure (smiles),measurement,setting,value
CCCCOC(=O)c1ccccc1C(=O)OCc1ccccc1 [Benzylbutyl Phthalate],"16-Methylheptadecanoic acid, change in plasma relative to control",male rats; mh7 (day 7),0.24
same,"17-Methyloctadecanoic acid, change in plasma relative to control",male rats; mh7 (day 7),0.37
same,"Coenzyme Q10, change in plasma relative to control",male rats; mh7 (day 7),0.51
same,"Proline, change in plasma relative to control",male rats; mh7 (day 7),0.74
same,"Threonine, change in plasma relative to control",male rats; mh7 (day 7),0.55
same,"Tyrosine, change in plasma relative to control",male rats; mh7 (day 7),0.74
same,"trans-4-Hydroxyproline, change in plasma relative to control",male rats; mh7 (day 7),0.69
same,"Eicosatrienoic acid (C20:3), change in plasma relative to control",male rats; mh7 (day 7),2.56
same,"16-Methylheptadecanoic acid, change in plasma relative to control",male rats; mh14 (day 14),0.31
same,"17-Methyloctadecanoic acid, change in plasma relative to control",male rats; mh14 (day 14),0.28
same,"Coenzyme Q10, change in plasma relative to control",male rats; mh14 (day 14),0.34
same,"Proline, change in plasma relative to control",male rats; mh14 (day 14),0.85
same,"Threonine, change in plasma relative to control",male rats; mh14 (day 14),0.69
same,"Tyrosine, change in plasma relative to control",male rats; mh14 (day 14),0.83
same,"trans-4-Hydroxyproline, change in plasma relative to control",male rats; mh14 (day 14),0.65
same,"Eicosatrienoic acid (C20:3), change in plasma relative to control",male rats; mh14 (day 14),3.12
same,"16-Methylheptadecanoic acid, change in plasma relative to control",male rats; mh28 (day 28),0.20
same,"17-Methyloctadecanoic acid, change in plasma relative to control",male rats; mh28 (day 28),0.30
same,"Coenzyme Q10, change in plasma relative to control",male rats; mh28 (day 28),0.27
same,"Proline, change in plasma relative to control",male rats; mh28 (day 28),0.84
same,"Threonine, change in plasma relative to control",male rats; mh28 (day 28),0.81
same,"Tyrosine, change in plasma relative to control",male rats; mh28 (day 28),0.97
same,"trans-4-Hydroxyproline, change in plasma relative to control",male rats; mh28 (day 28),0.83
same,"Eicosatrienoic acid (C20:3), change in plasma relative to control",male rats; mh28 (day 28),4.12
same,"16-Methylheptadecanoic acid, change in plasma relative to control",female rats; fh7 (day 7),0.55
same,"17-Methyloctadecanoic acid, change in plasma relative to control",female rats; fh7 (day 7),0.78
same,"Cytosine, change in plasma relative to control",female rats; fh7 (day 7),0.77
same,"Phosphatidylcholine (C18:0/C22:6), change in plasma relative to control",female rats; fh7 (day 7),0.59
same,"Coenzyme Q9, change in plasma relative to control",female rats; fh7 (day 7),1.44
same,"Gamma-Linolenic acid (C18:cis[6,9,12]3), change in plasma relative to control",female rats; fh7 (day 7),1.98
same,"Glycerol, lipid fraction, change in plasma relative to control",female rats; fh7 (day 7),1.15
same,"Palmitic acid (C16:0), change in plasma relative to control",female rats; fh7 (day 7),1.48
same,"Pantothenic acid, change in plasma relative to control",female rats; fh7 (day 7),1.82
same,"Threonic acid, change in plasma relative to control",female rats; fh7 (day 7),1.20
same,"16-Methylheptadecanoic acid, change in plasma relative to control",female rats; fh14 (day 14),0.66
same,"17-Methyloctadecanoic acid, change in plasma relative to control",female rats; fh14 (day 14),0.64
same,"Cytosine, change in plasma relative to control",female rats; fh14 (day 14),0.63
same,"Phosphatidylcholine (C18:0/C22:6), change in plasma relative to control",female rats; fh14 (day 14),0.86
same,"Coenzyme Q9, change in plasma relative to control",female rats; fh14 (day 14),1.50
same,"Gamma-Linolenic acid (C18:cis[6,9,12]3), change in plasma relative to control",female rats; fh14 (day 14),1.64
same,"Glycerol, lipid fraction, change in plasma relative to control",female rats; fh14 (day 14),1.48
same,"Palmitic acid (C16:0), change in plasma relative to control",female rats; fh14 (day 14),1.79
same,"Pantothenic acid, change in plasma relative to control",female rats; fh14 (day 14),2.06
same,"Threonic acid, change in plasma relative to control",female rats; fh14 (day 14),1.53
same,"16-Methylheptadecanoic acid, change in plasma relative to control",female rats; fh28 (day 28),0.85
same,"17-Methyloctadecanoic acid, change in plasma relative to control",female rats; fh28 (day 28),0.69
same,"Cytosine, change in plasma relative to control",female rats; fh28 (day 28),0.79
same,"Phosphatidylcholine (C18:0/C22:6), change in plasma relative to control",female rats; fh28 (day 28),0.81
same,"Coenzyme Q9, change in plasma relative to control",female rats; fh28 (day 28),1.78
same,"Gamma-Linolenic acid (C18:cis[6,9,12]3), change in plasma relative to control",female rats; fh28 (day 28),2.08
same,"Glycerol, lipid fraction, change in plasma relative to control",female rats; fh28 (day 28),2.43
same,"Palmitic acid (C16:0), change in plasma relative to control",female rats; fh28 (day 28),1.94
same,"Pantothenic acid, change in plasma relative to control",female rats; fh28 (day 28),2.42
same,"Threonic acid, change in plasma relative to control",female rats; fh28 (day 28),1.74
CCOC(=O)C(C)(C)Oc1ccc(Cl)cc1 [Clofibrate],"16-Methylheptadecanoic acid, change in plasma relative to control",male rats; mh7 (day 7),0.24
same,"17-Methyloctadecanoic acid, change in plasma relative to control",male rats; mh7 (day 7),0.35
same,"Coenzyme Q10, change in plasma relative to control",male rats; mh7 (day 7),0.45
same,"Proline, change in plasma relative to control",male rats; mh7 (day 7),0.78
same,"Threonine, change in plasma relative to control",male rats; mh7 (day 7),0.68
same,"Tyrosine, change in plasma relative to control",male rats; mh7 (day 7),0.87
same,"trans-4-Hydroxyproline, change in plasma relative to control",male rats; mh7 (day 7),0.77
same,"Eicosatrienoic acid (C20:3), change in plasma relative to control",male rats; mh7 (day 7),1.65
same,"16-Methylheptadecanoic acid, change in plasma relative to control",male rats; mh14 (day 14),0.21
same,"17-Methyloctadecanoic acid, change in plasma relative to control",male rats; mh14 (day 14),0.27
same,"Coenzyme Q10, change in plasma relative to control",male rats; mh14 (day 14),0.60
same,"Proline, change in plasma relative to control",male rats; mh14 (day 14),0.80
same,"Threonine, change in plasma relative to control",male rats; mh14 (day 14),1.02
same,"Tyrosine, change in plasma relative to control",male rats; mh14 (day 14),0.95
same,"trans-4-Hydroxyproline, change in plasma relative to control",male rats; mh14 (day 14),0.64
same,"Eicosatrienoic acid (C20:3), change in plasma relative to control",male rats; mh14 (day 14),1.72
same,"16-Methylheptadecanoic acid, change in plasma relative to control",male rats; mh28 (day 28),0.28
same,"17-Methyloctadecanoic acid, change in plasma relative to control",male rats; mh28 (day 28),0.37
same,"Coenzyme Q10, change in plasma relative to control",male rats; mh28 (day 28),0.47
same,"Proline, change in plasma relative to control",male rats; mh28 (day 28),0.87
same,"Threonine, change in plasma relative to control",male rats; mh28 (day 28),1.06
same,"Tyrosine, change in plasma relative to control",male rats; mh28 (day 28),1.02
same,"trans-4-Hydroxyproline, change in plasma relative to control",male rats; mh28 (day 28),0.57
same,"Eicosatrienoic acid (C20:3), change in plasma relative to control",male rats; mh28 (day 28),2.54
same,"16-Methylheptadecanoic acid, change in plasma relative to control",female rats; fh7 (day 7),0.55
same,"17-Methyloctadecanoic acid, change in plasma relative to control",female rats; fh7 (day 7),0.48
same,"Cytosine, change in plasma relative to control",female rats; fh7 (day 7),0.87
same,"Phosphatidylcholine (C18:0/C22:6), change in plasma relative to control",female rats; fh7 (day 7),0.88
same,"Coenzyme Q9, change in plasma relative to control",female rats; fh7 (day 7),1.86
same,"Gamma-Linolenic acid (C18:cis[6,9,12]3), change in plasma relative to control",female rats; fh7 (day 7),2.04
same,"Glycerol, lipid fraction, change in plasma relative to control",female rats; fh7 (day 7),1.39
same,"Palmitic acid (C16:0), change in plasma relative to control",female rats; fh7 (day 7),1.05
same,"Pantothenic acid, change in plasma relative to control",female rats; fh7 (day 7),1.07
same,"Threonic acid, change in plasma relative to control",female rats; fh7 (day 7),1.23
same,"16-Methylheptadecanoic acid, change in plasma relative to control",female rats; fh14 (day 14),0.75
same,"17-Methyloctadecanoic acid, change in plasma relative to control",female rats; fh14 (day 14),0.57
same,"Cytosine, change in plasma relative to control",female rats; fh14 (day 14),0.86
same,"Phosphatidylcholine (C18:0/C22:6), change in plasma relative to control",female rats; fh14 (day 14),0.71
same,"Coenzyme Q9, change in plasma relative to control",female rats; fh14 (day 14),1.64
same,"Gamma-Linolenic acid (C18:cis[6,9,12]3), change in plasma relative to control",female rats; fh14 (day 14),1.88
same,"Glycerol, lipid fraction, change in plasma relative to control",female rats; fh14 (day 14),1.64
same,"Palmitic acid (C16:0), change in plasma relative to control",female rats; fh14 (day 14),1.38
same,"Pantothenic acid, change in plasma relative to control",female rats; fh14 (day 14),1.75
same,"Threonic acid, change in plasma relative to control",female rats; fh14 (day 14),1.30
same,"16-Methylheptadecanoic acid, change in plasma relative to control",female rats; fh28 (day 28),0.75
same,"17-Methyloctadecanoic acid, change in plasma relative to control",female rats; fh28 (day 28),0.77
same,"Cytosine, change in plasma relative to control",female rats; fh28 (day 28),1.00
same,"Phosphatidylcholine (C18:0/C22:6), change in plasma relative to control",female rats; fh28 (day 28),0.53
same,"Coenzyme Q9, change in plasma relative to control",female rats; fh28 (day 28),2.55
same,"Gamma-Linolenic acid (C18:cis[6,9,12]3), change in plasma relative to control",female rats; fh28 (day 28),7.00
same,"Glycerol, lipid fraction, change in plasma relative to control",female rats; fh28 (day 28),4.99
same,"Palmitic acid (C16:0), change in plasma relative to control",female rats; fh28 (day 28),2.31
same,"Pantothenic acid, change in plasma relative to control",female rats; fh28 (day 28),1.22
same,"Threonic acid, change in plasma relative to control",female rats; fh28 (day 28),1.30
